US10065954B2, “Substituted imidazo[4,5-c]pyridines as SSAO inhibitors” (Proximagen Limited, priority 2014, dated 2018)

Assays:
[1] = target: T1, purified recombinantly expressed human SSAO (Homo sapiens, UniProt Q16853); assay: SSAO enzyme inhibition assay (benzylamine substrate; hydrogen peroxide/HRP-coupled or 14C-aldehyde detection); type: biochemical; conditions: SSAO inhibitory activity; recombinant human SSAO, RT
T1 construct: made in house
T1 sequence (Q16853 1-763): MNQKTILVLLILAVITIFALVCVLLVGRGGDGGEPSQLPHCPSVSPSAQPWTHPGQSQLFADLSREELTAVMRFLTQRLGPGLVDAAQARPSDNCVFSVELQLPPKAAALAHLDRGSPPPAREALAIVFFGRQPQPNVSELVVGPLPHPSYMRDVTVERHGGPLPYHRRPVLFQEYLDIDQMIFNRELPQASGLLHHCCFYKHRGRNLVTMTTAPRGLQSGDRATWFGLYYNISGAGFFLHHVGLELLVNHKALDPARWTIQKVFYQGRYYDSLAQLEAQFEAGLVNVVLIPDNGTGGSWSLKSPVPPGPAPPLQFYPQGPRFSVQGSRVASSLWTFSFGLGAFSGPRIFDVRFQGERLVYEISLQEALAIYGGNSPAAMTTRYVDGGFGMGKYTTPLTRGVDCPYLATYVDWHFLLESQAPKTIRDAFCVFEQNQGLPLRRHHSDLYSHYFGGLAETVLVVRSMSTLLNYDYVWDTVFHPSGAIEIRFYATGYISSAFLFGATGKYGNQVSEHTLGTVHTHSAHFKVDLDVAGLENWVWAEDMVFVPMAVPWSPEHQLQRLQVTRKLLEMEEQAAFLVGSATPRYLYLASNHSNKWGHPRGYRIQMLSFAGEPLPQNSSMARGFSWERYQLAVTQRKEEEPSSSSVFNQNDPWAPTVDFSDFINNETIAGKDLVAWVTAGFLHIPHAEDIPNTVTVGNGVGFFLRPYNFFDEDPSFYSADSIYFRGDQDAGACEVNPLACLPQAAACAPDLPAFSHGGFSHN
Experimental: All primary assays were performed at RT. with purified recombinantly expressed human SSAO. Enzyme was prepared essentially as described in Öhman et al. (Protein Expression and Purification 46 (2006) 321-331). In addition, secondary- and selectivity assays were performed using SSAO prepared from various tissues or purified rat recombinant SSAO. The enzyme activity was assayed with benzylamine as substrate by measuring either benzaldehyde production, using ^14C-labeled substrate, or by utilizing the production of hydrogen peroxide in a horseradish peroxidase (HRP) coupled reaction. Briefly, test compounds were dissolved in dimethyl sulfoxide (DMSO) to a concentration of 10 mM. Dose-response measurements were assayed by either creating 1:10 serial dilutions in DMSO to produce a 7 point curve or by making 1:3 serial dilutions in DMSO to produce 11 point curves. The top concentrations were adjusted depending on the potency of the compounds and subsequent dilution in reaction buffer yielded a final DMSO concentration ≤2%.
In a horseradish peroxidase (HRP) coupled reaction, hydrogen peroxide oxidation of 10-acetyl-3,7-dihydroxyphenoxazine produced resorufin, which is a highly fluorescent compound (Zhout and Panchuk-Voloshina. Analytical Biochemistry 253 (1997) 169-174; Amplex® Red Hydrogen Peroxide/peroxidase Assay kit, Invitrogen A22188). Enzyme and compounds in 50 mM sodium phosphate, pH 7.4 were set to pre-incubate in flat-bottomed microtiter plates for approximately 15 min before initiating the reaction by addition of a mixture of HRP, benzylamine and Amplex reagent. Benzylamine concentration was fixed at a concentration corresponding to the Michaelis constant, determined using standard procedures. Fluorescence intensity was then measured at several time points during 1-2 h, exciting at 544 nm and reading the emission at 590 nm. For the human SSAO assay final concentrations of the reagents in the assay wells were: SSAO enzyme 1 ug/mL, benzylamine 100 uM, Amplex reagent 20 uM, HRP 0.1 U/mL and varying concentrations of test compound. The inhibition was measured as % decrease of the signal compared to a control without inhibitor (only diluted DMSO). The background signal from a sample containing no SSAO enzyme was subtracted from all data points. Data was fitted to a four parameter logistic model and IC50 values were calculated using the GraphPad Prism 4 or XLfit 4 programs.
SSAO activity was assayed using […] benzylamine and analysed by measuring radioactive benzaldehyde. In a white 96-well optiplate (Packard), 20 uL of diluted test compound was pre-incubated at RT with 20 uL SSAO enzyme for approximately 15 min with continuous agitation. All dilutions were made with PBS. The reaction was initiated by adding 20 uL of the benzylamine substrate solution containing Benzylamine hydrochloride (CFA589, GE Healthcare). The plate was incubated for 1 h as above after which the reaction was stopped by acidification (10 uL 1M aq HCl). Then 90 uL Micro Scint-E solution (Perkin-Elmer) was added to each well and the plate was continuously mixed for 15 min. Phase separation occurred instantly and activity was read in a Topcount scintillation counter (Perkin-Elmer). In the final reaction well, the human recombinant SSAO concentration was 10 ug/mL. In order to optimize sensitivity, the substrate concentration was decreased as compared to the HRP coupled assay in order to get a higher fraction of radioactive product. In the human SSAO assay, benzylamine concentration was 40 uM (0.2uCi/mL). Data was analysed as above.

[2] = target: T2, human ether a go-go related gene (hERG) K+ channel (Homo sapiens, UniProt Q12809); assay: hERG assay, IonWorks patch clamp electrophysiology; type: cell-based; conditions: Chinese Hamster Lung cell line stably expressing hERG; max assay concentration 11 uM
T2 construct: Chinese Hamster Lung cell line stably expressing the full length hERG channel; expressed in transfected cells; host or cells: Chinese Hamster Lung cell line
Experimental: Compounds of the invention were tested for inhibition of the human ether a go-go related gene (hERG) K^+ channel using IonWorks patch clamp electrophysiology. 8 Point concentration-response curves were generated on two occasions using 3-fold serial dilutions from the maximum assay concentration (11 uM). Electrophysiological recordings were made from a Chinese Hamster Lung cell line stably expressing the full length hERG channel. Single cell ion currents were measured in the perforated patch clamp configuration (100 ug/mL amphoterocin) at RT using an IonWorks Quattro instrument. The internal solution contained 140 mM KCl, 1 mM MgCl2, 1 mM EGTA and 20 mM HEPES and was buffered to pH 7.3. The external solution contained 138 mM NaCl, 2.7 mM KCl, 0.9 mM CaCl2, 0.5 mM MgCl2, 8 mM Na2HPO4 and 1.5 mM KH2PO4, and was buffered to pH 7.3. Cells were clamped at a holding potential of […] for 30 s and then stepped to +40 mV for 1 s. This was followed by a hyperpolarising step of 1 s to […] to evoke the hERG tail current. This sequence was repeated 5 times at a frequency of 0.25 Hz. Currents were measured from the tail step at the 5th pulse, and referenced to the holding current. Compounds were incubated for 6-7 min prior to a second measurement of the hERG signal using an identical pulse train. A minimum of 17 cells were required for each pIC50 curve fit. A control compound (quinidine) was used (see Table 13 below).

T2 sequence (Q12809 whole entry): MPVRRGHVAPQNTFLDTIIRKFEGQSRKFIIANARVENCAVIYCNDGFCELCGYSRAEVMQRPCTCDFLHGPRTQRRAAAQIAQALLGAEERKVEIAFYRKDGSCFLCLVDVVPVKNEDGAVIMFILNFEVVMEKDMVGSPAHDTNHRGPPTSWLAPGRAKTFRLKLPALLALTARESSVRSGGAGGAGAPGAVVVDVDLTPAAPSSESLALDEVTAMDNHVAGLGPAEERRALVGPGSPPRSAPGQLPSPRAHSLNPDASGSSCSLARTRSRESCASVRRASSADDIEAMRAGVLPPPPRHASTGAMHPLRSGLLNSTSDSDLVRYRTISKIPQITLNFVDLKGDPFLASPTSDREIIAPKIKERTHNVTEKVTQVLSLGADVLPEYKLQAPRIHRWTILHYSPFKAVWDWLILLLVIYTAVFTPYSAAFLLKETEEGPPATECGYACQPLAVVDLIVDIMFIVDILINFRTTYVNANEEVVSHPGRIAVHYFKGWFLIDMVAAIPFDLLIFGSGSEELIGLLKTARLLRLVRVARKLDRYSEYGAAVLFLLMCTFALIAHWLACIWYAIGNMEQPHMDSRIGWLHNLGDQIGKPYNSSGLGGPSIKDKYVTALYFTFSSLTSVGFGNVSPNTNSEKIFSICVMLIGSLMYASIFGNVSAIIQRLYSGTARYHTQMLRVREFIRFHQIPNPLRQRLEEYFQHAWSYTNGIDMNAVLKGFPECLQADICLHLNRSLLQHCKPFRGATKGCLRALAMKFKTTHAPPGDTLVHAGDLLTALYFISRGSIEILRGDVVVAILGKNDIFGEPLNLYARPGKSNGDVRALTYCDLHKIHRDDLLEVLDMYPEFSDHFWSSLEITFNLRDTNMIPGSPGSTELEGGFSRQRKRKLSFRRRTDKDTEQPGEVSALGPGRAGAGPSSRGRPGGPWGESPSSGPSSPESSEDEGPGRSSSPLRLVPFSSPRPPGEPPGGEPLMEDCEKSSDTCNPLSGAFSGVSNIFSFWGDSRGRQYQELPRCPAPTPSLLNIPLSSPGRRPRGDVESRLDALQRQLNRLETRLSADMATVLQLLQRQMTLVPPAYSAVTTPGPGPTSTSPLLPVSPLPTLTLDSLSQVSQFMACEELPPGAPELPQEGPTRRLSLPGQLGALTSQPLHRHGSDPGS

IC50 [1] [nM] | Compound | IC50 [2] [nM]
< 50 | Cc1ccc(-n2c(-c3ccc(NC4CCOCC4)nc3)nc3ccncc32)cc1 [Compound 10, 5-[3-(4-Methylphenyl)-3H-imidazo[4,5-c]pyridin-2-yl]-N-(oxan-4-yl)pyridin-2-amine] | > 10000
< 50 | Fc1ccc(-n2c(-c3ccc(NC4CCOCC4)nc3)nc3ccncc32)cc1 [Compound 15, 5-[3-(4-Fluorophenyl)-3H-imidazo[4,5-c]pyridin-2-yl]-N-(oxan-4-yl)pyridin-2-amine] | > 10000
< 50 | Cc1ccc(-n2c(-c3ccc(NC4CC4)nc3)nc3ccncc32)cc1 [Compound 17, N-Cyclopropyl-5-[3-(4-methylphenyl)-3H-imidazo[4,5-c]pyridin-2-yl]pyridin-2-amine] | > 10000
< 50 | Cc1ccc(-n2c(-c3ccc(NC(C)C)nc3)nc3ccncc32)cc1 [Compound 24, 5-[3-(4-Methylphenyl)-3H-imidazo[4,5-c]pyridin-2-yl]-N-(propan-2-yl)pyridin-2-amine] | 
50 to 200 | Cc1ccc(-n2c(-c3ccc(N4CCOCC4)cc3)nc3ccncc32)cn1 [Compound 28, 4-{4-[3-(6-Methylpyridin-3-yl)-3H-imidazo[4,5-c]pyridin-2-yl]phenyl}morpholine] | 
200 to 1200 | Cc1ccc(-n2c(-c3ccc(N4CCOCC4)cc3)nc3ccncc32)nc1 [Compound 30, 4-{4-[3-(5-Methylpyridin-2-yl)-3H-imidazo[4,5-c]pyridin-2-yl]phenyl}morpholine] | 
< 50 | Cc1ccc(-n2c(-c3ccc(N4CCCC4)cc3)nc3ccncc32)cn1 [Compound 31, 2-Methyl-5-{2-[4-(pyrrolidin-1-yl)phenyl]-3H-imidazo[4,5-c]pyridin-3-yl}pyridine] | 
200 to 1200 | Cc1ccc(-n2c(-c3ccc(NC4CCOCC4)cc3)nc3ccncc32)cn1 [Compound 35, N-{4-[3-(6-Methylpyridin-3-yl)-3H-imidazo[4,5-c]pyridin-2-yl]phenyl}oxan-4-amine] | 
50 to 200 | Cc1ccc(-n2c(-c3ccc(N4CCCC4)cc3)nc3ccncc32)nc1 [Compound 36, 5-Methyl-2-{2-[4-(pyrrolidin-1-yl)phenyl]-3H-imidazo[4,5-c]pyridin-3-yl}pyridine] | 
50 to 200 | Cc1ccc(-n2c(-c3ccc(N4CCC(F)CC4)cc3)nc3ccncc32)cn1 [Compound 37, 5-{2-[4-(4-Fluoropiperidin-1-yl)phenyl]-3H-imidazo[4,5-c]pyridin-3-yl}-2-methylpyridine] | 
200 to 1200 | Fc1ccc(-n2c(-c3ccc(Cl)nc3)nc3ccncc32)cc1 [Compound 39, 2-Chloro-5-[3-(4-fluorophenyl)-3H-imidazo[4,5-c]pyridin-2-yl]pyridine] | 

More lines, now with the values behind:

Compound | IC50 [1] [nM] | IC50 [2] [nM]
Cc1cc(N2CCOCC2)ncc1-c1nc2ccncc2n1-c1ccc(Cl)cn1 [Compound 12, 4-{5-[3-(5-Chloropyridin-2-yl)-3H-imidazo[4,5-c]pyridin-2-yl]-4-methylpyridin-2-yl}morpholine] | < 50 | > 10000
Cc1ccc(-n2c(-c3ccc(N4CCCC4)nc3)nc3ccncc32)cn1 [Compound 18, 5-[3-(6-Methylpyridin-3-yl)-3H-imidazo[4,5-c]pyridin-2-yl]-2-(pyrrolidin-1-yl)pyridine] | < 50 | > 10000
Cc1ccc(-n2c(-c3ccc(N4CCC(F)CC4)nc3)nc3ccncc32)cn1 [Compound 19, 2-(4-Fluoropiperidin-1-yl)-5-[3-(6-methylpyridin-3-yl)-3H-imidazo[4,5-c]pyridin-2-yl]pyridine] | < 50 | > 10000
Cc1ccc(-n2c(-c3cnc(N4CCCC4)nc3)nc3ccncc32)cn1 [Compound 25, 5-[3-(6-Methylpyridin-3-yl)-3H-imidazo[4,5-c]pyridin-2-yl]-2-(pyrrolidin-1-yl)pyrimidine] | 50 to 200 | 
Cc1ccc(-n2c(-c3cnc(N4CCCC4)nc3)nc3ccncc32)nc1 [Compound 26, 5-[3-(5-Methylpyridin-2-yl)-3H-imidazo[4,5-c]pyridin-2-yl]-2-(pyrrolidin-1-yl)pyrimidine] | 50 to 200 | 
Fc1ccc(-n2c(-c3cnc(N4CCCC4)nc3)nc3ccncc32)nc1 [Compound 27, 5-[3-(5-Fluoropyridin-2-yl)-3H-imidazo[4,5-c]pyridin-2-yl]-2-(pyrrolidin-1-yl)pyrimidine] | 50 to 200 | 
Cc1ccc(-n2c(-c3cnc(N4CCCC4)nc3)nc3ccncc32)cc1 [Compound 29, 5-[3-(4-Methylphenyl)-3H-imidazo[4,5-c]pyridin-2-yl]-2-(pyrrolidin-1-yl)pyrimidine] | < 50 | 
Cc1ccc(-n2c(-c3ccc(N4CCCC4)cc3F)nc3ccncc32)cn1 [Compound 32, 5-{2-[2-Fluoro-4-(pyrrolidin-1-yl)phenyl]-3H-imidazo[4,5-c]pyridin-3-yl}-2-methylpyridine] | < 50 | 
Cc1ccc(-n2c(-c3ccc(N4CCOCC4)cc3F)nc3ccncc32)cn1 [Compound 33, 4-{3-Fluoro-4-[3-(6-methylpyridin-3-yl)-3H-imidazo[4,5-c]pyridin-2-yl]phenyl}morpholine] | 50 to 200 | 
Cc1ccc(-n2c(-c3ccc(N4CCCC4)c(F)c3)nc3ccncc32)cn1 [Compound 34, 5-{2-[3-Fluoro-4-(pyrrolidin-1-yl)phenyl]-3H-imidazo[4,5-c]pyridin-3-yl}-2-methylpyridine] | 50 to 200 | 
Clc1ccc(-n2c(-c3ccc(Cl)nc3)nc3ccncc32)cc1 [Compound 38, 2-Chloro-5-[3-(4-chlorophenyl)-3H-imidazo[4,5-c]pyridin-2-yl]pyridine] | 200 to 1200 | 
